Columns and labels:
[1] = Measurement of particle size and polydispersity index of lipid particles (Zetasizer Nano ZS); assay type: physicochemical; details: siRNA-containing lipid particles made with the named phospholipid A, phospholipid B and cholesterol; for PDI / Particle size (nm): diluted 50-fold with RNase-free water
Description: (§1) siRNA was added to 1 mM citrate buffer (pH 4.0), thereby preparing an acidic aqueous solution of siRNA (25° C., siRNA concentration: 301.2 nM). Separately, lipids were added to ethanol, thereby preparing a phospholipid alcohol solution (25° C., lipid concentration: 2.5 mM). The molar ratios of lipids were (1) DHSM-DEDA:DHSM:cholesterol (Chol)=45:10:45, (2) DHSM-PPZ:DOPC:cholesterol (Chol)=45:10:60, and (3) DOP-DEDA:DPPC:cholesterol (Chol)=45:10:45. A 4.15-fold volume of the acidic aqueous solution of siRNA was added to the phospholipid alcohol solution (siRNA/lipid molar ratio=1/7000), and a microchannel (KeyChem-Basic, YMC Co., Ltd.) was used to obtain lipid particles. Finally, ethanol was removed by dialysis.
The lipid particles were diluted 50-fold with RNase-free water, and then the particle size and polydispersity index (PDI) were measured with a Zetasizer Nano ZS (Malvern). The lipid particles were also diluted 50-fold with a buffer (pH=4.0, 5.0, 6.0, or 7.0), and the ζ-potential was then measured.

[2] = siRNA encapsulation efficiency of lipid particles (RiboGreen reagent); assay type: physicochemical; details: siRNA-containing lipid particles made with the named phospholipid A; siRNA/lipid molar ratio 1/7000; with or without 2% Triton-X 100
Description: as §1
Further, the encapsulation efficiency of siRNA was measured in the following manner. The measurement was performed using an RNA assay reagent (RiboGreen reagent, Thermo Fisher Scientific), specifically as described below. […] The plate was shaken for 5 minutes, and the fluorescence intensity in each well was measured. The encapsulation efficiency of siRNA in the lipid particles was calculated using the following equation: the encapsulation efficiency (%)=(the fluorescence intensity of total siRNA−the fluorescence intensity of free siRNA)/(the fluorescence intensity of total siRNA), with the measured fluorescence intensity.

Which results are given for CCCCCCCCCCCCCCCCCC(=O)N[C@@H](COP(=O)(O)OCCNCCN)[C@H](O)CCCCCCCCCCCCCCC [DHSM-DEDA, (2S,3R)-3-hydroxy-2-stearamidooctadecyl (2-(2′-aminoethylenamine)ethyl) phosphate]?
Particle size distribution [1]: Double peak; PDI [1]: 0.09 ± 0.03; Particle size (nm) [1]: 132 ± 37 nm

With “Dioleoylphosphate-Diethylenediamine Conjugate [DOP-DEDA, reference compound]” as the compound, how does the Particle size distribution [1] read?
Its Particle size distribution is “Single peak”.

What about the PDI [1] of the same compound?
Its PDI is 0.11 ± 0.06.

And the “Particle size (nm)” value [1]?
Its value is 100 ± 3 nm.

And the “siRNA encapsulation efficiency (%)” value [2]?
The value was 98 ± 7%.

What does the source list for “(2S,3R)-3-hydroxy-2-stearamidooctadecyl (2-(piperazino)ethyl) phosphate [DHSM-PPZ]”?
Particle size distribution [1]: Double peak; PDI [1]: 0.16 ± 0.01; Particle size (nm) [1]: 111 ± 4 nm; siRNA encapsulation efficiency (%) [2]: 80 ± 7%

Source: patent US12565510B2, “Phospholipid” (NIPPON FINE CHEMICAL CO., LTD., priority 2021, dated 2026)
